# Target: human P2X3 receptor (Homo sapiens (Human), UniProt P56373)
# Test: Evaluation of human P2X3 receptor inhibitory activity (Test Example 1)
# Assay type: cell-based
# Conditions: C6BU-1 cell transfected with human P2X3 receptor gene, FLIPR 384
# Method: Stably expressing cell line (C6BU-1 cell transfected with human P2X3 receptor gene (GenBank accession number Y07683) was used. The cells were seeded in a 384-well PDL-coated microtiter plate at a concentration of 3000 cells/well and cultured in the medium (8.3% fetal bovine serum, 8.3% horse serum, and 1% antibiotic and antifungal in DMEM) for one day at 37° C. under 5% carbon dioxide atmosphere. The medium was replaced with 4 μM Fluo-3-AM solution (20 mM HEPES, 137 mM NaCl, 2.7 mM KCl, 0.9 mM MgCl2, 5.0 mM CaCl2, 5.6 mM D-glucose, 2.5 mM probenecid, 0.5% BSA, and 0.04% Pluronic F-127, pH 7.5) and incubated at 37° C. under 5% dioxide carbon atmosphere for one hour. The plate was washed with washing buffer (20 mM HEPES, 137 mM NaCl, 2.7 mM KCl, 0.9 mM MgCl2, 5.0 mM CaCl2, 5.6 mM D-glucose, 2.5 mM probenecid, pH7.5), and each well was added with 20 μL of the washing buffer. The plate was placed in High-Throughput Screening System FLIPR 384 (Molecular Device Co.). Measurement of fluorescence intensity by FLIPR 384 was started, and 20 μL of DMSO solutions containing different concentrations of the test compound as prepared by dilution with dilution buffer (20 mM HEPES, 137 mM NaCl, 2.7 mM KCl, 0.9 mM MgCl2, 5.0 mM CaCl2, 5.6 mM D-glucose, 2.5 mM probenecid, 0.1% Pluronic F-127, pH7.5) were dispensed to each well through the built-in automatic dispenser. Five minutes after, 150 nM ATP solution (25 μL) prepared by dilution with the dilution buffer was dispensed through the built-in automatic dispenser, and the measurement of fluorescence intensity was continued for 4 min. For each well, the specific maximum fluorescence intensity was calculated as the ratio of the maximum fluorescence intensity after addition of the ATP solution to the fluorescence intensity at the starting of the measurement. […] The specific maximum fluorescence intensity and IC50 were calculated using Spotfire (Science & Technology Systems, Inc.)
# Sequence of human P2X3 receptor (P56373 whole entry): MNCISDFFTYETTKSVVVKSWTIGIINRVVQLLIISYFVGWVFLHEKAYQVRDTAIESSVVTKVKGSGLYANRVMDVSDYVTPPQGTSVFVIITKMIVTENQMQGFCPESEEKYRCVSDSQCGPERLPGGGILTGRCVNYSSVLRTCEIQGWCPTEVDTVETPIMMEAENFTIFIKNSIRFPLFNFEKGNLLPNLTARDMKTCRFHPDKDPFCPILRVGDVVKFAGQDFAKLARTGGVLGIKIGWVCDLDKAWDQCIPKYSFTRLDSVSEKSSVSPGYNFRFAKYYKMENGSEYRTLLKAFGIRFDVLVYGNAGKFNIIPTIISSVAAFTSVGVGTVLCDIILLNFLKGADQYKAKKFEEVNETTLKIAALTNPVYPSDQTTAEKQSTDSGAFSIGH
row,SMILES,IC50 [nM]
1,COC(=O)[C@H](C)[C@H](C)n1c(=O)[nH]/c(=N\c2ccc(Oc3ccc(F)cn3)c(F)c2)n(Cc2ccc(Cl)cc2)c1=O [Compound I-001],44
2,COC(=O)C(C)(C)Cn1c(=O)[nH]/c(=N\c2ccc(Oc3ccc(F)cn3)cc2)n(Cc2ccc(Cl)cc2)c1=O [Compound I-003],7
3,COC(=O)C(C)(C)Cn1c(=O)[nH]/c(=N\c2ccc(Oc3ccc(Cl)cn3)cc2)n(Cc2ccc(Cl)cc2)c1=O [Compound I-004],14
4,CC(C)(Cn1c(=O)[nH]/c(=N\c2ccc(Oc3ccc(F)cn3)cc2)n(Cc2ccc(Cl)cc2)c1=O)C(=O)O [Compound I-005],8
5,COC(=O)C(C)(C)Cn1c(=O)[nH]/c(=N\c2ccc(Oc3ncccc3F)cc2)n(Cc2ccc(Cl)cc2)c1=O [Compound I-007],9
6,COC(=O)C(C)(C)Cn1c(=O)[nH]/c(=N\c2ccc(Oc3cccc(F)n3)cc2)n(Cc2ccc(Cl)cc2)c1=O [Compound I-008],7
7,CC(C)(Cn1c(=O)[nH]/c(=N\c2ccc(Oc3ncccc3F)cc2)n(Cc2ccc(Cl)cc2)c1=O)C(=O)O [Compound I-009],7
8,CC(C)(Cn1c(=O)[nH]/c(=N\c2ccc(Oc3cccc(F)n3)cc2)n(Cc2ccc(Cl)cc2)c1=O)C(=O)O [Compound I-010],5
9,COC(=O)[C@@H](C)Cn1c(=O)[nH]/c(=N\c2ccc(Oc3cccc(Cl)n3)cc2)n(Cc2ccc(Cl)cc2)c1=O [Compound I-011],18
10,COC(=O)C(C)(C)Cn1c(=O)[nH]/c(=N\c2ccc(Oc3cccc(Cl)n3)cc2)n(Cc2ccc(Cl)cc2)c1=O [Compound I-012],25
11,COC(=O)[C@H](C)[C@H](C)n1c(=O)[nH]/c(=N\c2ccc(Oc3cccc(Cl)n3)cc2)n(Cc2ccc(Cl)cc2)c1=O [Compound I-013],58
12,CC(C)(Cn1c(=O)[nH]/c(=N\c2ccc(Oc3cccc(Cl)n3)cc2)n(Cc2ccc(Cl)cc2)c1=O)C(=O)O [Compound I-015],9
13,C[C@@H](C(=O)O)[C@H](C)n1c(=O)[nH]/c(=N\c2ccc(Oc3cccc(Cl)n3)cc2)n(Cc2ccc(Cl)cc2)c1=O [Compound I-016],8
14,O=C(O)C1(Cn2c(=O)[nH]/c(=N\c3ccc(Oc4ccc(F)cn4)cc3)n(Cc3ccc(Cl)cc3)c2=O)CC1 [Compound I-018],12
15,O=c1[nH]/c(=N\c2ccc(Oc3ccc(F)cn3)cc2)n(Cc2ccc(Cl)cc2)c(=O)n1[C@H]1C[C@@H](C(=O)O)C1 [Compound I-020],9
16,COC(=O)C(C)(C)Cn1c(=O)[nH]/c(=N\c2ccc(Oc3ccc(OC(F)F)cn3)cc2)n(Cc2ccc(Cl)cc2)c1=O [Compound I-021],25
17,C[C@@H](Cn1c(=O)[nH]/c(=N\c2ccc(Oc3ccc(OC(F)F)cn3)cc2)n(Cc2ccc(Cl)cc2)c1=O)C(=O)O [Compound I-022],4
18,CC(C)(Cn1c(=O)[nH]/c(=N\c2ccc(Oc3ccc(OC(F)F)cn3)cc2)n(Cc2ccc(Cl)cc2)c1=O)C(=O)O [Compound I-023],7
19,COC(=O)[C@@H](C)Cn1c(=O)[nH]/c(=N\c2ccc(Oc3ncccc3F)cc2)n(Cc2ccc(F)cc2F)c1=O [Compound I-024],34
20,COC(=O)[C@@H](C)Cn1c(=O)[nH]/c(=N\c2ccc(Oc3cccc(F)n3)cc2)n(Cc2ccc(F)cc2F)c1=O [Compound I-026],17
21,C[C@@H](Cn1c(=O)[nH]/c(=N\c2ccc(Oc3ncccc3F)cc2)n(Cc2ccc(F)cc2F)c1=O)C(=O)O [Compound I-027],39
22,C[C@@H](Cn1c(=O)[nH]/c(=N\c2ccc(Oc3ccc(F)cn3)cc2)n(Cc2ccc(F)cc2F)c1=O)C(=O)O [Compound I-028],20
23,COC(=O)[C@@H](C)Cn1c(=O)[nH]/c(=N\c2ccc(Oc3ncccc3C(F)(F)F)cc2)n(Cc2ccc(Cl)cc2)c1=O [Compound I-030],176
24,COC(=O)C(C)(C)Cn1c(=O)[nH]/c(=N\c2ccc(Oc3ncccc3C(F)(F)F)cc2)n(Cc2ccc(Cl)cc2)c1=O [Compound I-031],199
25,C[C@@H](Cn1c(=O)[nH]/c(=N\c2ccc(Oc3ncccc3C(F)(F)F)cc2)n(Cc2ccc(Cl)cc2)c1=O)C(=O)O [Compound I-032],11
26,CC(C)(Cn1c(=O)[nH]/c(=N\c2ccc(Oc3ncccc3C(F)(F)F)cc2)n(Cc2ccc(Cl)cc2)c1=O)C(=O)O [Compound I-033],23

row,SMILES,IC50 [nM]
1,COC(=O)[C@@H](C)Cn1c(=O)[nH]/c(=N\c2ccc(Oc3ccc(C(F)(F)F)cn3)cc2)n(Cc2ccc(C)cc2)c1=O [Compound I-034],9
2,COC(=O)[C@@H](C)Cn1c(=O)[nH]/c(=N\c2ccc(Oc3cccc(C(F)(F)F)n3)cc2)n(Cc2ccc(C)cc2)c1=O [Compound I-035],12
3,COC(=O)C(C)(C)Cn1c(=O)[nH]/c(=N\c2ccc(Oc3ccc(F)cn3)cc2)n(Cc2ccc(C)cc2)c1=O [Compound I-037],6
4,Cc1ccc(Cn2c(=O)n(C[C@H](C)C(=O)O)c(=O)[nH]/c2=N\c2ccc(Oc3ccc(C(F)(F)F)cn3)cc2)cc1 [Compound I-038],5
5,Cc1ccc(Cn2c(=O)n(C[C@H](C)C(=O)O)c(=O)[nH]/c2=N\c2ccc(Oc3cccc(C(F)(F)F)n3)cc2)cc1 [Compound I-039],8
6,Cc1ccc(Cn2c(=O)n(CC(C)(C)C(=O)O)c(=O)[nH]/c2=N\c2ccc(Oc3ccc(F)cn3)cc2)cc1 [Compound I-041],9
7,O=c1[nH]/c(=N\c2ccc(Oc3cccc(F)n3)cc2)n(Cc2ccc(Cl)cc2)c(=O)n1CC1(CO)COC1 [Compound I-042],4
8,COC(=O)[C@@H](C)Cn1c(=O)[nH]/c(=N\c2ccc(Oc3ncccc3OC(F)F)cc2)n(Cc2ccc(Cl)cc2)c1=O [Compound I-043],117
9,C[C@@H](Cn1c(=O)[nH]/c(=N\c2ccc(Oc3ncccc3OC(F)F)cc2)n(Cc2ccc(Cl)cc2)c1=O)C(=O)O [Compound I-044],26
10,COC(=O)[C@@H](C)Cn1c(=O)[nH]/c(=N\c2ccc(Oc3ncccc3C#N)cc2)n(Cc2ccc(Cl)cc2)c1=O [Compound I-045],19
11,COC(=O)C(C)(C)Cn1c(=O)[nH]/c(=N\c2ccc(Oc3ncccc3C#N)cc2)n(Cc2ccc(Cl)cc2)c1=O [Compound I-046],19
12,C[C@@H](Cn1c(=O)[nH]/c(=N\c2ccc(Oc3ncccc3C#N)cc2)n(Cc2ccc(Cl)cc2)c1=O)C(=O)O [Compound I-047],22
13,CC(C)(Cn1c(=O)[nH]/c(=N\c2ccc(Oc3ncccc3C#N)cc2)n(Cc2ccc(Cl)cc2)c1=O)C(=O)O [Compound I-048],30
14,O=C(O)C1(Cn2c(=O)[nH]/c(=N\c3ccc(Oc4cccc(F)n4)cc3)n(Cc3ccc(Cl)cc3)c2=O)COC1 [Compound I-049],15
15,O=C(O)C1(Cn2c(=O)[nH]/c(=N\c3ccc(Oc4ncccc4F)cc3)n(Cc3ccc(Cl)cc3)c2=O)COC1 [Compound I-050],28
16,COC(=O)[C@@H](C)Cn1c(=O)[nH]/c(=N\c2ccc(Oc3ccc(C)cn3)cc2)n(Cc2ccc(Cl)cc2)c1=O [Compound I-051],6
17,COC(=O)[C@@H](C)Cn1c(=O)[nH]/c(=N\c2ccc(Oc3ncccc3F)cc2)n(Cc2ccc(C)cc2)c1=O [Compound I-052],6
18,COC(=O)[C@@H](C)Cn1c(=O)[nH]/c(=N\c2ccc(Oc3cccc(F)n3)cc2)n(Cc2ccc(C)cc2)c1=O [Compound I-053],6
19,Cc1ccc(Oc2ccc(/N=c3\[nH]c(=O)n(C[C@H](C)C(=O)O)c(=O)n3Cc3ccc(Cl)cc3)cc2)nc1 [Compound I-054],5
20,COC(=O)C(C)(C)Cn1c(=O)[nH]/c(=N\c2ccc(Oc3ccc(C)cn3)cc2)n(Cc2ccc(Cl)cc2)c1=O [Compound I-055],9
21,Cc1ccc(Cn2c(=O)n(C[C@H](C)C(=O)O)c(=O)[nH]/c2=N\c2ccc(Oc3ncccc3F)cc2)cc1 [Compound I-056],7
22,O=C(O)C1(Cn2c(=O)[nH]/c(=N\c3ccc(Oc4ccc(F)cn4)cc3)n(Cc3ccc(Cl)cc3)c2=O)COC1 [Compound I-059],16
23,COC(=O)[C@@H](C)Cn1c(=O)[nH]/c(=N\c2ccc(Oc3cc(Cl)ccn3)cc2)n(Cc2ccc(Cl)cc2)c1=O [Compound I-060],24
24,CCOC(=O)[C@H]1C[C@H](n2c(=O)[nH]/c(=N\c3ccc(Oc4ncccc4F)cc3)n(Cc3ccc(Cl)cc3)c2=O)C1 [Compound I-061],62
25,CCOC(=O)[C@H]1C[C@@H](n2c(=O)[nH]/c(=N\c3ccc(Oc4ncccc4F)cc3)n(Cc3ccc(Cl)cc3)c2=O)C1 [Compound I-062],31
26,O=c1[nH]/c(=N\c2ccc(Oc3ncccc3F)cc2)n(Cc2ccc(Cl)cc2)c(=O)n1[C@H]1C[C@@H](C(=O)O)C1 [Compound I-064],10

# Source: US10065941B2, “Aminotriazine derivative and pharmaceutical composition comprising the same” (Shionogi & Co., Ltd., priority 2013, dated 2018)
